Experimental data as given in patent US20160046592A1, “PHARMACEUTICAL COMPOSITION FOR THE TREATMENT OF DIABETES” (Ajinomoto Co., Inc., priority 2013, published 2016).

Molecular target: T1, PPAR-α (Homo sapiens, UniProt Q07869)
T1 construct: expressed in transfected cells; host or cells: CV-1 (African green monkey kidney)
T1 sequence (Q07869 167-468): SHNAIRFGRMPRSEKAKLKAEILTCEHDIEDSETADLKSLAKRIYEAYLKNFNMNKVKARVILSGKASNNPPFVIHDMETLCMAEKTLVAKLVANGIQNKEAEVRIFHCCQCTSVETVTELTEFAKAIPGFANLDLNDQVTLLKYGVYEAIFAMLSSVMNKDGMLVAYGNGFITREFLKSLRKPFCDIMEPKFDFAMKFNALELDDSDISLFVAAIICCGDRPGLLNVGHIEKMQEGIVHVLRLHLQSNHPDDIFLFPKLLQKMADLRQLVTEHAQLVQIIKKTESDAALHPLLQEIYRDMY
Assay: Measurement of PPAR-α activity (GAL4 luciferase reporter assay in CV-1 cells)
Type: cell-based
Details: 100(A/B): A = maximum PPAR-α activity of test compound at 3, 10, 30 and 100 μM, B = activity of the compound of WO/2011/058154 at 100 μM, 18 to 20 hours, read-out: Relative fold induction (%) of PPAR α
Summary of the method: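 CV-1 cells were co-transfected with a UAS×5-TK-Luc reporter and a hGR-GAL4-hPPARα (LBD 167-468aa) expression plasmid, then dosed with compound for 18 to 20 h at 37 °C, with Bright-Glo luciferase read-out. Relative fold induction (%) is the maximum activity at 3, 10, 30 or 100 μM divided by the activity of a WO/2011/058154 reference compound at 100 μM.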

Compound	Emax
CSc1cc(F)c(F)cc1-c1ccc(OCc2cccc(C(=O)N(CC(=O)O)Cc3nnc(C)o3)c2)cc1 [Example 73, 2-[[3-[[4-(4,5-Difluoro-2-methylsulfanyl-phenyl)phenoxy]methyl]benzoyl]-[(5-methyl-1,3,4-oxadiazol-2-yl)methyl]amino]acetic Acid]	16%
CSc1cc(F)c(F)cc1-c1ccc(OCc2cccc(C(=O)N(CC(=O)O)Cc3cn(C)cn3)c2)cc1 [Example 74, 2-[[3-[[4-(4,5-Difluoro-2-methylsulfanyl-phenyl)phenoxy]methyl]benzoyl]-[(1-methylimidazol-4-yl)methyl]amino]acetic Acid]	16%
N#CCCN(CC(=O)O)C(=O)c1cccc(COc2ccc(-c3cc(F)c(F)c4ccoc34)cc2)c1 [Example 75, 2-[2-Cyanoethyl-[3-[[4-(4,5-difluorobenzofuran-7-yl)phenoxy]methyl]benzoyl]amino]acetic Acid]	38%
CS(=O)(=O)CCCN(CC(=O)O)C(=O)c1cccc(COc2ccc(-c3cc(F)c(F)c4ccoc34)cc2)c1 [Example 77, 2-[[3-[[4-(4,5-Difluorobenzofuran-7-yl)phenoxy]methyl]benzoyl]-(3-methylsulfonylpropyl)amino]acetic Acid]	40%
COC[C@H](C)N(CC(=O)O)C(=O)c1cccc(COc2ccc(-c3cc(F)c(F)c4ccoc34)cc2)c1 [Example 80, 2-[[3-[[4-(4,5-Difluorobenzofuran-7-yl)phenoxy]methyl]benzoyl]-[(1S)-2-methoxy-1-methyl-ethyl]amino]acetic Acid]	91%

More lines, now with the values ahead:

Emax	Compound
65%	CO[C@H]1CCN(C(=O)c2cccc(COc3ccc(-c4cc(F)c(F)c5ccoc45)cc3)c2)[C@@H]1C(=O)O [Example 78, (2S,3S)-1-[3-[[4-(4,5-Difluorobenzofuran-7-yl)phenoxy]methyl]benzoyl]-3-methoxy-pyrrolidine-2-carboxylic Acid]
7.1%	NC(=O)CCN(CC(=O)O)C(=O)c1cccc(COc2ccc(-c3cc(F)c(F)c4ccoc34)cc2)c1 [Example 79, 2-[(3-Amino-3-oxo-propyl)-[3-[[4-(4,5-difluorobenzofuran-7-yl)phenoxy]methyl]benzoyl]amino]acetic Acid]
6.4%	CC(=O)N1CCC(CN(CC(=O)O)C(=O)c2cccc(COc3ccc(-c4cc(F)c(F)c5ccoc45)cc3)c2)CC1 [Example 81, 2-[(1-Acetyl-4-piperidyl)methyl-[3-[[4-(4,5-difluorobenzofuran-7-yl)phenoxy]methyl]benzoyl]amino]acetic Acid]
11%	O=C(O)CN(C(=O)c1cccc(COc2ccc(-c3cc(F)c(F)c4ccoc34)cc2)c1)C1CCNC1=O (stereo not drawn) [Example 82, 2-[[3-[[4-(4,5-Difluorobenzofuran-7-yl)phenoxy]methyl]benzoyl]-(2-oxopyrrolidin-3-yl)amino]acetic Acid]
